Laboratory results as given in patent US12616739B2, “GLP-1 prodrugs and uses thereof” (Novo Nordisk A/S, priority 2020, dated 2026).

Assay: Prodrug to drug conversion half-life in vitro, PBS pH 7.4, 37° C.
Assay type: physicochemical
Details: buffer
Description: General Methods for Measuring Conversion Half-Life
The assay was performed to investigate the conversion half-life of prodrug to drug of the prodrugs of the invention.
Peptide stock solutions were prepared by dissolving freeze-dried powder in PBS buffer to a target of 200 μM. PBS-buffer was Dulbecco's Phosphate Buffered Saline without CaCl2 and MgCl2, gibco 14190-094 adjusted to pH=7.4. The pH of the peptide stock solutions was adjusted to 7.4 with 0.02 M HCl or 0.02M NaOH. Samples were filled in Agilent HPLC vials with fixed insert. Vials were capped to prevent evaporation. The HPLC vials were incubated at 37° C. and samples were withdrawn at different time points over a period of 2 weeks, flash frozen at −80° C., and stored at −20° C. until analysis.
Sample analysis was carried out using UPLC coupled to UV detection at 215 nm and MS (UPLC-UV-MS). One μl of sample was injected on to a Waters Acquity UPLC with a flow-through-needle injection system and on to a Waters Acquity CSH C18 column (1*150 mm), with a particle size of 1.7 μm and held at 55° C. A flow-rate of 100 μl/min was delivered with a Binary solvent manager pump having 0.1% formic acid in water as solvent A and 0.1% formic acid in acetonitrile as solvent B. Gradient elution was carried out using 15-32% B from 0 to 4 min followed by 32 to 48% B from 4 to 54 min. […]

Compound | half-life
CC[C@H](C)[C@H](NC(=O)[C@H](Cc1ccccc1)NC(=O)[C@H](CCC(=O)O)NC(=O)[C@H](CCCCNC(=O)COCCOCCNC(=O)COCCOCCNC(=O)CC[C@H](NC(=O)CCCCCCCCCCCCCCCCC(=O)O)C(=O)O)NC(=O)[C@H](C)NC(=O)[C@H](C)NC(=O)[C@H](CCC(N)=O)NC(=O)CNC(=O)[C@H](CCC(=O)O)NC(=O)[C@H](CC(C)C)NC(=O)[C@H](Cc1ccc(O)cc1)NC(=O)[C@H](CO)NC(=O)[C@H](CO)NC(=O)[C@@H](NC(=O)[C@H](CC(=O)O)NC(=O)[C@H](CO)NC(=O)[C@@H](NC(=O)[C@H](Cc1ccccc1)NC(=O)[C@@H](NC(=O)CNC(=O)[C@H](CCC(=O)O)NC(=O)C(C)(C)NC(=O)[C@H](Cc1c[nH]cn1)NC(=O)CN(CCNC(=O)CC[C@H](NC(=O)CCCCCCCCCCOc1ccc(C(=O)O)cc1)C(=O)O)C(=O)CN)[C@@H](C)O)[C@@H](C)O)C(C)C)C(=O)N[C@@H](C)C(=O)N[C@@H](Cc1c[nH]c2ccccc12)C(=O)N[C@@H](CC(C)C)C(=O)N[C@H](C(=O)N[C@@H](CCCNC(=N)N)C(=O)NCC(=O)N[C@@H](CCCNC(=N)N)C(=O)NCC(=O)O)C(C)C [Chem. 26, Gly-N^α-2-[[(4S)-4-carboxy-4-[11-(4-carboxyphenoxy)undecanoylamino]butanoyl]amino]ethyl-Gly-semaglutide] | 118 h
CC[C@H](C)[C@H](NC(=O)[C@H](Cc1ccccc1)NC(=O)[C@H](CCC(=O)O)NC(=O)[C@H](CCCCNC(=O)COCCOCCNC(=O)COCCOCCNC(=O)CC[C@H](NC(=O)CCCCCCCCCCCCCCCCC(=O)O)C(=O)O)NC(=O)[C@H](C)NC(=O)[C@H](C)NC(=O)[C@H](CCC(N)=O)NC(=O)CNC(=O)[C@H](CCC(=O)O)NC(=O)[C@H](CC(C)C)NC(=O)[C@H](Cc1ccc(O)cc1)NC(=O)[C@H](CO)NC(=O)[C@H](CO)NC(=O)[C@@H](NC(=O)[C@H](CC(=O)O)NC(=O)[C@H](CO)NC(=O)[C@@H](NC(=O)[C@H](Cc1ccccc1)NC(=O)[C@@H](NC(=O)CNC(=O)[C@H](CCC(=O)O)NC(=O)C(C)(C)NC(=O)[C@H](Cc1c[nH]cn1)NC(=O)CN(CCNC(=O)CC[C@H](NC(=O)CCCCCCCCCOc1ccc(C(=O)O)cc1)C(=O)O)C(=O)CN)[C@@H](C)O)[C@@H](C)O)C(C)C)C(=O)N[C@@H](C)C(=O)N[C@@H](Cc1c[nH]c2ccccc12)C(=O)N[C@@H](CC(C)C)C(=O)N[C@H](C(=O)N[C@@H](CCCNC(=N)N)C(=O)NCC(=O)N[C@@H](CCCNC(=N)N)C(=O)NCC(=O)O)C(C)C [Chem. 18, Gly-N^α-2-[[(4S)-4-carboxy-4-[10-(4-carboxyphenoxy)decanoylamino]butanoyl]amino]ethyl-Gly-semaglutide] | 115 h
